From patent US8552220B2, “Therapeutic agent for Alzheimer's disease” (Tokyo Institute of Technology, priority 2008, dated 2013)

Q: For `O=C(/C=C/c1cc(O)ccc1[N+](=O)[O-])CC(=O)/C=C/c1cc(O)ccc1[N+](=O)[O-]`, which melting point is on record?
A: The melting point was 253 to 262 °C.

Q: Which melting point does the source give for `CN(C)c1ccc(/C=C/C(=O)CC(=O)/C=C/c2ccc(N(C)C)cc2[N+](=O)[O-])c([N+](=O)[O-])c1` here?
A: Its melting point is 245 to 250 °C.

Q: With `O=C(/C=C/c1ccc(O)cc1)CC(=O)/C=C/c1ccc(O)cc1Cl` [CU127, (1E,6E)-1-(2-chloro-4-hydroxyphenyl)-7-(4-hydroxyphenyl)hepta-1,6-diene-3,5-dione] as the compound, how does the melting point read?
A: Its melting point is 131 to 138 °C.

Q: Which melting point does the source give for `COc1cc(/C=C/C(=O)CC(=O)/C=C/c2ccc(O)cc2Cl)ccc1O` [CU129, (1E,6E)-1-(2-chloro-4-hydroxyphenyl)-7-(4-hydroxy-3-methoxyphenyl)hepta-1,6-diene-3,5-dione] here?
A: Its melting point is 185 to 192 °C.

Q: For `COc1ccc(/C=C/C(=O)CC(=O)/C=C/c2ccc(O)cc2Cl)cc1O` [CU130, (1E,6E)-1-(2-chloro-4-hydroxyphenyl)-7-(3-hydroxy-4-methoxyphenyl)hepta-1,6-diene-3,5-dione], which melting point is on record?
A: The melting point was 120 to 130 °C.

Q: Which melting point does the source give for `COc1cc(/C=C/C(=O)CC(=O)/C=C/c2cc(O)ccc2[N+](=O)[O-])ccc1O` [CU132, (1E,6E)-1-(4-hydroxy-3-methoxyphenyl)-7-(5-hydroxy-2-nitrophenyl)hepta-1,6-diene-3,5-dione] here?
A: Its melting point is 147 to 152 °C.

Q: With `COc1ccc(/C=C/C(=O)CC(=O)/C=C/c2cc(O)ccc2[N+](=O)[O-])cc1O` [CU133, (1E,6E)-1-(3-hydroxy-4-methoxyphenyl)-7-(5-hydroxy-2-nitrophenyl)hepta-1,6-diene-3,5-dione] as the compound, how does the melting point read?
A: The melting point was 107 to 111 °C.

Q: Which melting point does the source give for `CN(C)c1ccc(/C=C/C(=O)CC(=O)/C=C/c2ccc(O)cc2)c([N+](=O)[O-])c1` [CU194, (1E,6E)-1-(4-dimethylamino-2-nitrophenyl)-7-(4-hydroxyphenyl)hepta-1,6-diene-3,5-dione] here?
A: Its melting point is 217 to 222 °C.

Q: Which melting point does the source give for `O=C(/C=C/c1ccc(O)cc1Cl)CC(=O)/C=C/c1ccc(O)cc1Cl` [CU362, (1E,6E)-1,7-bis(2-chloro-4-hydroxyphenyl)hepta-1,6-diene-3,5-dione] here?
A: Its melting point is 248 to 254 °C.

Q: For `CN(C)c1ccc(/C=C/C(=O)CC(=O)/C=C/c2ccc(N(C)C)cc2Cl)c(Cl)c1` [CU412, (1E,6E)-1,7-bis(2-chloro-4-dimethylaminophenyl)hepta-1,6-diene-3,5-dione], which melting point is on record?
A: The melting point was 238 to 241 °C.

Q: Which melting point does the source give for `CCN(CC)c1ccc(/C=C/C(=O)CC(=O)/C=C/c2ccc(O)cc2)c(OC(=O)c2ccccc2)c1` [CU425, (1E,6E)-1-(2-benzoyloxy-4-diethylaminophenyl)-7-(4-hydroxyphenyl)hepta-1,6-diene-3,5-dione] here?
A: Its melting point is 212 to 215 °C.

Q: With `CCN(CC)c1ccc(/C=C/C(=O)CC(=O)/C=C/c2ccc(N(CC)CC)cc2OC(=O)c2ccccc2)c(OC(=O)c2ccccc2)c1` [CU427, (1E,6E)-1,7-bis(2-benzoyloxy-4-diethylaminophenyl)hepta-1,6-diene-3,5-dione] as the compound, how does the melting point read?
A: Its melting point is 192 to 196 °C.

Q: For `O=C(/C=C/c1ccc(O)cc1)CC(=O)/C=C/c1cc(Cl)ccc1[N+](=O)[O-]` [CU465, (1E,6E)-1-(5-chloro-2-nitrophenyl)-7-(4-hydroxyphenyl)hepta-1,6-diene-3,5-dione], which melting point is on record?
A: Its melting point is 241 to 250 °C.

Q: Which melting point does the source give for `O=C(/C=C/c1ccc(O)cc1)CC(=O)/C=C/c1cc(Br)ccc1F` [CU466, (1E,6E)-1-(5-bromo-2-fluorophenyl)-7-(4-hydroxyphenyl)hepta-1,6-diene-3,5-dione] here?
A: The melting point was 177 to 203 °C.

Q: Which melting point does the source give for `O=C(/C=C/c1ccc(O)cc1)CC(=O)/C=C/c1ccccc1C(F)(F)F` [CU467, (1E,6E)-1-(4-hydroxyphenyl)-7-(2-trifluoromethylphenyl)hepta-1,6-diene-3,5-dione] here?
A: Its melting point is 181 to 185 °C.

Q: Which melting point does the source give for `O=C(/C=C/c1ccc(O)cc1)CC(=O)/C=C/c1ccc(Br)cc1F` [CU471, (1E,6E)-1-(4-bromo-2-fluorophenyl)-7-(4-hydroxyphenyl)hepta-1,6-diene-3,5-dione] here?
A: The melting point was 223 to 232 °C.

Q: Which melting point does the source give for `O=C(/C=C/c1ccc(O)cc1)CC(=O)/C=C/c1ccccc1-c1ccccc1` [CU472, (1E,6E)-1-(biphenyl-2-yl)-7-(4-hydroxyphenyl)hepta-1,6-diene-3,5-dione] here?
A: Its melting point is 180 to 188 °C.

Q: For `O=C(/C=C/c1ccc(O)cc1)CC(=O)/C=C/c1cc(C(F)(F)F)ccc1F` [CU473, (1E,6E)-1-(2-fluoro-5-trifluoromethylphenyl)-7-(4-hydroxyphenyl)hepta-1,6-diene-3,5-dione], which melting point is on record?
A: Its melting point is 168 to 174 °C.

Q: Which melting point does the source give for `COC(=O)c1ccccc1/C=C/C(=O)CC(=O)/C=C/c1ccc(O)cc1` [CU478, (1E,6E)-1-(4-hydroxyphenyl)-7-[2-(methoxycarbonyl)phenyl]hepta-1,6-diene-3,5-dione] here?
A: The melting point was 145 to 150 °C.

Q: With `CN(C)C(=O)c1ccccc1/C=C/C(=O)CC(=O)/C=C/c1ccc(O)cc1` [CU479, (1E,6E)-1-[2-(dimethylaminocarbonyl)phenyl]-7-(4-hydroxyphenyl)hepta-1,6-diene-3,5-dione] as the compound, how does the melting point read?
A: The melting point was 210 to 218 °C.

Q: For `CN(C)S(=O)(=O)c1ccccc1/C=C/C(=O)CC(=O)/C=C/c1ccc(O)cc1` [CU480, (1E,6E)-1-[2-(dimethylaminosulfonyl)phenyl]-7-(4-hydroxyphenyl)hepta-1,6-diene-3,5-dione], which melting point is on record?
A: Its melting point is 86 to 90 °C.

Q: For `CS(=O)(=O)Oc1ccccc1/C=C/C(=O)CC(=O)/C=C/c1ccc(O)cc1` [CU483, (1E,6E)-1-(4-hydroxyphenyl)-7-[2-(methylsulfonyloxy)phenyl]hepta-1,6-diene-3,5-dione], which melting point is on record?
A: The melting point was 163 to 167 °C.

Q: With `O=C(/C=C/c1ccc(O)cc1)CC(=O)/C=C/c1ccccc1Br` [CU486, (1E,6E)-1-(2-bromophenyl)-7-(4-hydroxyphenyl)hepta-1,6-diene-3,5-dione] as the compound, how does the melting point read?
A: The melting point was 155 to 159 °C.

Q: For `O=C(/C=C/c1ccc(O)cc1)CC(=O)/C=C/c1cc(OCc2c(F)cccc2Cl)ccc1[N+](=O)[O-]` [CU492, (1E,6E)-1-[5-(2-chloro-6-fluorobenzyloxy)-2-nitrophenyl]-7-(4-hydroxyphenyl)hepta-1,6-diene-3,5-dione], which melting point is on record?
A: Its melting point is 180 to 183 °C.

Q: For `O=C(/C=C/c1ccc(O)cc1)CC(=O)/C=C/c1cc(OCc2ccc(Cl)cc2Cl)ccc1[N+](=O)[O-]` [CU493, (1E,6E)-1-[5-(2,4-dichlorobenzyloxy)-2-nitrophenyl]-7-(4-hydroxyphenyl)hepta-1,6-diene-3,5-dione], which melting point is on record?
A: Its melting point is 157 to 161 °C.

Q: For `CN(C)c1ccc(/C=C/C(=O)CC(=O)CCc2ccc(O)cc2)c([N+](=O)[O-])c1` [CU523, (E)-1-(4-dimethylamino-2-nitrophenyl)-7-(4-hydroxyphenyl)hept-1-ene-3,5-dione], which melting point is on record?
A: Its melting point is 136 to 142 °C.

Q: With `O=C(/C=C/c1ccc(O)cc1)CC(=O)/C=C/c1cc(O)ccc1-c1ccccc1` [CU526, (1E,6E)-1-(4-hydroxybiphenyl-2-yl)-7-(4-hydroxyphenyl)hepta-1,6-diene-3,5-dione] as the compound, how does the melting point read?
A: Its melting point is 179 to 186 °C.

Q: With `O=C(/C=C/c1ccc(O)cc1)CC(=O)/C=C/c1cc(OCc2ccccc2)ccc1-c1ccccc1` [CU527, (1E,6E)-1-(4-benzyloxybiphenyl-2-yl)-7-(4-hydroxyphenyl)hepta-1,6-diene-3,5-dione] as the compound, how does the melting point read?
A: The melting point was 172 to 178 °C.

Q: For `O=C(/C=C/c1ccc(O)cc1)CC(=O)/C=C/c1ccccc1-c1cccc2ccccc12` [CU528, (1E,6E)-1-(4-hydroxyphenyl)-7-[2-(naphthalen-1-yl)phenyl]hepta-1,6-diene-3,5-dione], which melting point is on record?
A: Its melting point is 95 to 101 °C.

Q: Which melting point does the source give for `O=C(/C=C/c1ccc(O)cc1)CC(=O)/C=C/c1ccccc1-c1ccc2ccccc2c1` [CU529, (1E,6E)-1-(4-hydroxyphenyl)-7-[2-(naphthalen-2-yl)phenyl]hepta-1,6-diene-3,5-dione] here?
A: Its melting point is 105 to 114 °C.

Q: Which melting point does the source give for `O=C(/C=C/c1cc(O)ccc1[N+](=O)[O-])CC(=O)CCc1ccc(O)cc1` [CU530, (E)-1-(5-hydroxy-2-nitrophenyl)-7-(4-hydroxyphenyl)hept-1-ene-3,5-dione] here?
A: Its melting point is 62 to 70 °C.

Q: For `O=C(/C=C/c1ccc(O)cc1)CC(=O)/C=C/c1cc(O)ccc1-c1cccc2ccccc12` [CU538, (1E,6E)-1-[5-hydroxy-2-(naphthalen-1-yl)phenyl]-7-(4-hydroxyphenyl)hepta-1,6-diene-3,5-dione], which melting point is on record?
A: The melting point was 215 to 221 °C.

Q: For `COc1cc(/C=C/C(=O)CC(=O)/C=C/c2ccc(O)cc2)c(Br)cc1O` [CU539, (1E,6E)-1-(2-bromo-4-hydroxy-5-methoxyphenyl)-7-(4-hydroxyphenyl)hepta-1,6-diene-3,5-dione], which melting point is on record?
A: The melting point was 237 to 242 °C.

Q: Which melting point does the source give for `O=C(/C=C/c1cc(O)ccc1-c1ccccc1)CC(=O)CCc1ccc(O)cc1` [CU541, (E)-1-(4-hydroxybiphenyl-2-yl)-7-(4-hydroxyphenyl)hept-1-ene-3,5-dione] here?
A: Its melting point is 148 to 158 °C.

Q: For `O=C(/C=C/c1cc(O)ccc1-c1cccc2ccccc12)CC(=O)CCc1ccc(O)cc1` [CU542, (E)-1-[5-hydroxy-2-(naphthalen-1-yl)phenyl]-7-(4-hydroxyphenyl)hept-1-ene-3,5-dione], which melting point is on record?
A: Its melting point is 138 to 142 °C.

Q: With `COc1cc(Br)c(/C=C/C(=O)CC(=O)/C=C/c2ccc(O)cc2)cc1O` [CU543, (1E,6E)-1-(2-bromo-5-hydroxy-4-methoxyphenyl)-7-(4-hydroxyphenyl)hepta-1,6-diene-3,5-dione] as the compound, how does the melting point read?
A: Its melting point is 224 to 229 °C.

Q: With `O=C(/C=C/c1ccc(O)cc1)CC(=O)/C=C/c1cc(O)c(Br)cc1Br` [CU544, (1E,6E)-1-(2,4-dibromo-5-hydroxyphenyl)-7-(4-hydroxyphenyl)hepta-1,6-diene-3,5-dione] as the compound, how does the melting point read?
A: Its melting point is 255 to 259 °C.

Q: Which melting point does the source give for `O=C(/C=C/c1cc(O)ccc1Br)CC(=O)CCc1ccc(O)cc1` [CU549, (E)-1-(2-bromo-5-hydroxyphenyl)-7-(4-hydroxyphenyl)hept-1-ene-3,5-dione] here?
A: Its melting point is 161 to 165 °C.

Q: Which melting point does the source give for `CN(C)CCOc1ccc(/C=C/C(=O)CC(=O)/C=C/c2ccc(O)cc2)c(Cl)c1` [CU551, (1E,6E)-1-[2-chloro-4-(2-dimethylaminoethoxy)phenyl]-7-(4-hydroxyphenyl)hepta-1,6-diene-3,5-dione] here?
A: The melting point was 170 to 173 °C.

Q: With `CN(C)CCOc1ccc(Br)c(/C=C/C(=O)CC(=O)/C=C/c2ccc(O)cc2)c1` [CU552, (1E,6E)-1-[2-bromo-5-(2-dimethylaminoethoxy)phenyl]-7-(4-hydroxyphenyl)hepta-1,6-diene-3,5-dione] as the compound, how does the melting point read?
A: The melting point was 163 to 167 °C.
